In the supplement of paper PMC10307832:

Legend:
Test in all cases: relative viability (nuclei count vs DMSO), 5 days (fraction); higher = more cells survive
Carboplatin + Linsitinib = compound: C1CC(C1)(C(=O)O)C(=O)O.[NH2-].[NH2-].[Pt+2] [Carboplatin] + C[C@]1(O)C[C@@H](c2nc(-c3ccc4ccc(-c5ccccc5)nc4c3)c3c(N)nccn32)C1 [Linsitinib] (partner 1 µM)
Method in brief: (§1)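 Relative viability was taken as the ratio of nuclei in treated wells to nuclei in vehicle wells. Lung cancer cell lines in 1536-well plates received compounds by pin tool one day after seeding, either one drug alone or a fixed anchor-drug dose plus five library-drug doses (not always all listed) in √10 steps. Nuclei were counted on 4× images after 5 days of treatment, and values are medians of duplicate plates.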

Carboplatin + Olaparib = compound: C1CC(C1)(C(=O)O)C(=O)O.[NH2-].[NH2-].[Pt+2] [Carboplatin] + O=C(c1cc(Cc2n[nH]c(=O)c3ccccc23)ccc1F)N1CCN(C(=O)C2CC2)CC1 [Olaparib] (partner 8 µM)
Method in brief: as §1

GSK126 + Alpelisib = compound: CC[C@H](C)N1C=C(C2=C(C=C(C=C21)C3=CN=C(C=C3)N4CCNCC4)C(=O)NCC5=C(C=C(NC5=O)C)C)C [GSK126] + Cc1nc(NC(=O)N2CCC[C@H]2C(N)=O)sc1-c1ccnc(C(C)(C)C(F)(F)F)c1 [Alpelisib] (partner 2 µM)
Method in brief: as §1

GSK126 + Dasatinib = compound: CC[C@H](C)N1C=C(C2=C(C=C(C=C21)C3=CN=C(C=C3)N4CCNCC4)C(=O)NCC5=C(C=C(NC5=O)C)C)C [GSK126] + Cc1nc(Nc2ncc(C(=O)Nc3c(C)cccc3Cl)s2)cc(N2CCN(CCO)CC2)n1 [Dasatinib] (partner 0.075 µM)
Method in brief: as §1

Row | Cell Line | relative viability (Carboplatin + Linsitinib; first compound 0.08 µM) | relative viability (Carboplatin + Linsitinib; first compound 0.253 µM) | relative viability (Carboplatin + Linsitinib; first compound 0.8 µM) | relative viability (Carboplatin + Linsitinib; first compound 2.53 µM) | relative viability (Carboplatin + Linsitinib; first compound 8 µM) | relative viability (Carboplatin + Olaparib; first compound 0.08 µM) | relative viability (Carboplatin + Olaparib; first compound 0.253 µM) | relative viability (Carboplatin + Olaparib; first compound 0.8 µM) | relative viability (Carboplatin + Olaparib; first compound 2.53 µM) | relative viability (Carboplatin + Olaparib; first compound 8 µM) | relative viability (GSK126 + Alpelisib; first compound 0.08 µM) | relative viability (GSK126 + Alpelisib; first compound 0.253 µM) | relative viability (GSK126 + Alpelisib; first compound 0.8 µM) | relative viability (GSK126 + Alpelisib; first compound 2.53 µM) | relative viability (GSK126 + Alpelisib; first compound 8 µM) | relative viability (GSK126 + Dasatinib; first compound 0.08 µM) | relative viability (GSK126 + Dasatinib; first compound 0.253 µM) | relative viability (GSK126 + Dasatinib; first compound 0.8 µM) | relative viability (GSK126 + Dasatinib; first compound 2.53 µM) | relative viability (GSK126 + Dasatinib; first compound 8 µM)
1 | NCI-H1793 | 1.04 | 1.1 | 0.675 | 0.848 | 0.839 | 0.802 | 0.909 | 0.82 | 0.675 | 1.04 | 0.968 | 0.783 | 0.548 | 0.511 | 0.766 | 0.441 | 0.373 | 0.356 | 0.431 | 0.405
2 | HCC-44 | 0.668 | 0.685 | 0.606 | 0.478 | 0.543 | 1.02 | 0.93 | 0.972 | 0.944 | 0.952 | 0.884 | 0.841 | 0.813 | 0.81 | 0.859 |  |  |  |  | 
3 | NCI-H3122 | 0.947 | 1.01 | 0.991 | 1.08 | 0.973 | 0.644 | 0.584 | 0.562 | 0.559 | 0.622 | 0.827 | 0.854 | 0.767 | 0.768 | 0.829 | 0.969 | 0.728 | 0.819 | 0.748 | 1.2
4 | COR-L23 | 0.976 | 0.91 | 0.754 | 0.529 | 0.297 | 0.329 | 0.3 | 0.301 | 0.246 | 0.157 | 0.814 | 0.826 | 0.792 | 0.755 | 0.647 | 0.594 | 0.488 | 0.488 | 0.392 | 0.415
